System: methicillin resistant Staphylococcus aureus (MRSA)
Test: Agar well diffusion method, antibacterial activity on Mueller Hinton media
Type: cell-based
Details: for Inhibition zone diameter: bacterial lawn of Staphylococcus aureus grown on Mueller Hinton media, agar well diffusion
Procedure: The antibacterial activities of safranal, a mixture of compound 2 and compound 3 obtained by the thermal epoxidation of safranal according to scheme 1, and a mixture of compound 2 and compound 3 obtained by the photochemical epoxidation of safranal according to scheme 2 against methicillin resistant Staphylococcus aureus (MRSA) were determined by the agar well diffusion method described by Collins, C. H., P. M. Lyne, J. M. Grange, Microbial Methods., 6th Edition, Butterworhs Co. Ltd, London; 1989. p. 410, incorporated herein by reference in its entirety.
Table 1: Antibacterial Activity (Inhibition Zone Diameter) of the Mixture of Compound 2 and Compound 3 Obtained by the Thermal Epoxidation of Safranal or by the Photochemical Epoxidation of Safranal, and Safranal Against Staphylococcus aureus Grown on Mueller Hinton Media Using Agar Well Diffusion Method

Question: For CC1=C(C=O)C(C)(C)CC=C1 [Safranal, 2,6,6-trimethylcyclohexa-1,3-diene-1-carbaldehyde], which “Inhibition zone in the bacterial lawn (presence/absence)” value (Staphylococcus aureus on Mueller Hinton media in a petri dish, agar well containing test substance, FIG. 3B-3D) is on record?
Answer: presence of an inhibition zone

Question: What about the Inhibition zone diameter of the same compound?
Answer: 27.00 mm

Question: What about the Inhibition zone diameter (listed as safranal) of the same compound?
Answer: 27 mm
